Results from the supplement of paper PMC10307832.

Key:
Assay in all cases: relative viability (nuclei count vs DMSO), 5 days (fraction); higher = more cells survive
Vandetanib + Decitabine = compound: COc1cc2/c(=N/c3ccc(Br)cc3F)nc[nH]c2cc1OCC1CCN(C)CC1 [Vandetanib] + Nc1ncn([C@H]2C[C@H](O)[C@@H](CO)O2)c(=O)n1 [Decitabine] (partner 2 µM)
Outline: (§1)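 Each reported value is a median over duplicate plates. It expresses relative viability: treated-well nuclei count divided by vehicle-well nuclei count. Lung cancer cell lines in 1536-well plates were dosed by pin tool a day after seeding, alone with one drug or with a fixed anchor-drug dose plus five library-drug doses (not always all listed) in √10 steps, and nuclei were counted after 5 days.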

[1] = compound: C1=CC=C2C(=C1)N=C(S2)C(C#N)C3=NC(=NC=C3)NCCC4=CN=CC=C4 + COc1cccc2cc(-c3nc([C@H]4CC[C@H](C(=O)O)CC4)n4ncnc(N)c34)[nH]c12 [OSI-027] (partner 0.5 µM)
Outline: as §1

Vandetanib + Lapatinib = compound: COc1cc2/c(=N/c3ccc(Br)cc3F)nc[nH]c2cc1OCC1CCN(C)CC1 [Vandetanib] + CS(=O)(=O)CCNCc1ccc(-c2ccc3ncnc(Nc4ccc(OCc5cccc(F)c5)c(Cl)c4)c3c2)o1 [Lapatinib] (partner 2 µM)
Outline: as §1

[2] = compound: C1=CC=C2C(=C1)N=C(S2)C(C#N)C3=NC(=NC=C3)NCCC4=CN=CC=C4 + O=C(CCCCCCC(=O)Nc1ccccc1)NO [Vorinostat] (partner 1 µM)
Outline: as §1

| Cell Line | relative viability (Vandetanib + Decitabine; first compound 0.02 µM) | relative viability (Vandetanib + Decitabine; first compound 0.06325 µM) | relative viability (Vandetanib + Decitabine; first compound 0.2 µM) | relative viability (Vandetanib + Decitabine; first compound 0.6325 µM) | relative viability (Vandetanib + Decitabine; first compound 2 µM) | relative viability ([1]; first compound 0.005 µM) | relative viability ([1]; first compound 0.01581 µM) | relative viability ([1]; first compound 0.05 µM) | relative viability ([1]; first compound 0.1581 µM) | relative viability ([1]; first compound 0.5 µM) | relative viability (Vandetanib + Lapatinib; first compound 0.02 µM) | relative viability (Vandetanib + Lapatinib; first compound 0.06325 µM) | relative viability (Vandetanib + Lapatinib; first compound 0.2 µM) | relative viability (Vandetanib + Lapatinib; first compound 0.6325 µM) | relative viability (Vandetanib + Lapatinib; first compound 2 µM) | relative viability ([2]; first compound 0.005 µM) | relative viability ([2]; first compound 0.01581 µM) | relative viability ([2]; first compound 0.05 µM) | relative viability ([2]; first compound 0.1581 µM) | relative viability ([2]; first compound 0.5 µM) |
| --- | --- | --- | --- | --- | --- | --- | --- | --- | --- | --- | --- | --- | --- | --- | --- | --- | --- | --- | --- | --- |
| 201T | 0.831 | 0.828 | 0.859 | 0.85 | 0.797 | 0.935 | 0.696 | 0.7 | 0.833 | 0.779 | 0.968 | 1.03 | 1.03 | 0.994 | 1.05 | 0.819 | 0.918 | 0.949 | 0.997 | 0.959 |
| A549 | 0.189 | 0.267 | 0.281 | 0.252 | 0.34 | – | – | – | – | – | 1.05 | 0.935 | 0.905 | 1.01 | 0.946 | – | – | – | – | – |
| A-427 | 0.58 | 0.59 | 0.541 | 0.517 | 0.574 | 0.481 | 0.467 | 0.442 | 0.475 | 0.39 | 0.968 | 1.02 | 1.14 | 1.01 | 0.74 | 0.9 | 0.86 | 0.811 | 0.902 | 0.887 |
| ABC-1 | 1.14 | 1.04 | 1.13 | 1.4 | 0.833 | 0.592 | 0.407 | 0.51 | 0.606 | 0.517 | 1.48 | 1.29 | 1.12 | 1.37 | 0.961 | 1.13 | – | 1.03 | 1.33 | 0.985 |
| BEN | 0.651 | 0.7 | 0.625 | 0.725 | 0.446 | 0.427 | 0.283 | 0.274 | 0.625 | 0.587 | 0.75 | 0.686 | 0.677 | 0.742 | 0.812 | 0.496 | 0.58 | 0.548 | 0.643 | 0.577 |
| CAL-12T | – | – | – | – | – | 0.811 | 0.536 | 0.525 | 0.534 | 0.427 | 0.704 | 0.611 | 0.701 | 0.726 | 0.749 | 0.572 | 0.873 | 0.973 | 0.814 | 0.725 |
| COR-L23 | 0.447 | 0.442 | 0.491 | 0.401 | 0.422 | 0.369 | 0.839 | 0.716 | 0.985 | 0.511 | 1.08 | 0.906 | 1.03 | 0.96 | 1.01 | 0.377 | 0.354 | 0.464 | 0.421 | 0.36 |
| COR-L 105 | 0.683 | 0.574 | 0.622 | 0.561 | 0.505 | 0.576 | 0.556 | 0.71 | 0.768 | 0.547 | 0.322 | 0.307 | 0.325 | 0.366 | 0.356 | 0.648 | 0.908 | 0.884 | 0.893 | 0.876 |
| Calu-6 | – | – | – | – | – | – | – | – | – | – | 1.08 | 0.966 | 1.12 | 0.94 | 1.07 | – | – | – | – | – |
| ChaGo-K-1 | 0.518 | 0.519 | 0.287 | 0.496 | 0.523 | – | 0.491 | 0.616 | 0.587 | 0.452 | – | – | – | – | – | 0.584 | 0.809 | 0.702 | 0.863 | 0.724 |
| EBC-1 | – | – | – | – | – | – | – | – | – | – | 0.212 | 0.204 | 0.19 | 0.211 | 0.183 | – | – | – | – | – |
| EKVX | 0.378 | 0.322 | 0.345 | 0.279 | 0.212 | 0.736 | 0.909 | 0.681 | 0.69 | 0.659 | 0.2 | 0.184 | 0.183 | 0.2 | 0.215 | 0.506 | 0.731 | 0.677 | 0.821 | 0.741 |
| EMC-BAC-2 | 1.03 | 0.938 | 0.902 | 0.966 | 0.905 | 0.364 | 0.37 | 0.38 | 0.394 | 0.366 | 0.906 | 0.87 | 0.435 | 0.866 | 0.95 | 0.491 | 0.299 | 0.48 | 0.476 | 0.411 |
| EPLC-272H | 0.381 | 0.35 | 0.343 | 0.364 | 0.314 | 0.217 | 0.264 | 0.254 | 0.257 | 0.301 | 1.05 | 0.791 | 0.933 | 1.02 | 0.168 | – | 0.519 | 0.451 | 0.395 | 0.178 |
| H3255 | 0.766 | 0.559 | 0.565 | 0.387 | 0.207 | 0.732 | 0.596 | 0.608 | 0.581 | 0.702 | 0.26 | 0.231 | 0.244 | 0.213 | 0.202 | 0.792 | 0.729 | 0.745 | 0.988 | 0.84 |
| HARA | 0.466 | 0.653 | 0.515 | 0.559 | 0.578 | 0.602 | 0.373 | 0.493 | 0.464 | 0.472 | 0.676 | 0.558 | 0.588 | 0.773 | 0.764 | 0.663 | 0.718 | 0.559 | 0.59 | 0.614 |
| HCC-15 | 0.662 | 0.516 | 0.562 | 0.616 | 0.616 | 0.558 | 0.644 | 0.722 | 0.863 | 0.531 | 0.824 | 0.772 | 0.798 | 0.878 | 0.937 | 0.959 | 0.971 | 0.816 | 0.851 | 0.775 |
| HCC-44 | 0.999 | 0.992 | 0.949 | 0.897 | 0.973 | 0.421 | – | 0.566 | 0.531 | 0.47 | 0.917 | 1 | 1.06 | 0.968 | 0.996 | 1.19 | 1.14 | 1.09 | 1.15 | 1.02 |
| HCC-78 | 0.715 | 0.632 | 0.683 | 0.689 | 0.643 | 0.367 | 0.35 | 0.332 | 0.438 | 0.36 | 1.03 | 0.739 | 0.915 | 0.913 | 0.738 | 0.485 | 0.391 | 0.509 | 0.524 | 0.42 |
